Source: PubChem BioAssay (NCI)
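Growth conditions: 96-well plates. Treatment: test compound, 48 hours, 5 concentrations. Analysis: linear interpolation between bracketing concentrations; unreached endpoints set to highest concentration. GI50: concentration for 50% inhibition of growth. TGI: concentration producing complete growth inhibition.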

How the values were obtained:
Experiment in all cases: NCI tumour cell line growth inhibition, 48 h
OVCAR-5 ovarian = test system: OVCAR-5 ovarian
U251 CNS = test system: U251 CNS
SK-MEL-5 melanoma = test system: SK-MEL-5 melanoma
HOP-62 NSCLC = test system: HOP-62 NSCLC
HCT-116 colon = test system: HCT-116 colon
HS 578T breast = test system: HS 578T breast
ACHN renal = test system: ACHN renal
A498 renal = test system: A498 renal
LOX IMVI melanoma = test system: LOX IMVI melanoma
SF-295 CNS = test system: SF-295 CNS
EKVX NSCLC = test system: EKVX NSCLC
SNB-75 CNS = test system: SNB-75 CNS
RPMI-8226 leukemia = test system: RPMI-8226 leukemia
OVCAR-8 ovarian = test system: OVCAR-8 ovarian
RXF 393 renal = test system: RXF 393 renal
786-0 renal = test system: 786-0 renal
MCF7 breast = test system: MCF7 breast
T-47D breast = test system: T-47D breast
KM12 colon = test system: KM12 colon
SNB-19 CNS = test system: SNB-19 CNS
OVCAR-4 ovarian = test system: OVCAR-4 ovarian
HT29 colon = test system: HT29 colon
UACC-257 melanoma = test system: UACC-257 melanoma
SK-OV-3 ovarian = test system: SK-OV-3 ovarian
NCI-H23 lung = test system: NCI-H23 lung
UACC-62 melanoma = test system: UACC-62 melanoma
SF-539 CNS = test system: SF-539 CNS
HL-60(TB) leukemia = test system: HL-60(TB) leukemia
SN12C renal = test system: SN12C renal
COLO 205 colon = test system: COLO 205 colon
SF-268 CNS = test system: SF-268 CNS
MDA-MB-435 = test system: MDA-MB-435
DU-145 prostate = test system: DU-145 prostate
IGROV1 ovarian = test system: IGROV1 ovarian
CAKI-1 renal = test system: CAKI-1 renal
MOLT-4 leukemia = test system: MOLT-4 leukemia
NCI/ADR-RES ovarian = test system: NCI/ADR-RES ovarian
TK-10 renal = test system: TK-10 renal
SK-MEL-2 melanoma = test system: SK-MEL-2 melanoma
BT-549 breast = test system: BT-549 breast
PC-3 prostate = test system: PC-3 prostate
A549 NSCLC = test system: A549 NSCLC
HCT-15 colon = test system: HCT-15 colon
NCI-H460 lung = test system: NCI-H460 lung
SW-620 colon = test system: SW-620 colon
HOP-92 NSCLC = test system: HOP-92 NSCLC
OVCAR-3 ovarian = test system: OVCAR-3 ovarian
K-562 leukemia = test system: K-562 leukemia
CCRF-CEM leukemia = test system: CCRF-CEM leukemia
M14 melanoma = test system: M14 melanoma
NCI-H226 lung = test system: NCI-H226 lung
MDA-MB-231 breast = test system: MDA-MB-231 breast
SK-MEL-28 melanoma = test system: SK-MEL-28 melanoma

`CC1=C2[C@H]3OC(=O)[C@@H](C)[C@@H]3CC[C@@]2(C)C=CC1=O` was tested, and the GI50 (OVCAR-5 ovarian) was greater than 100 µM, the TGI (OVCAR-5 ovarian) was greater than 100 µM and the GI50 (U251 CNS) was greater than 100 µM. It also gave a TGI (U251 CNS) greater than 100 µM, a GI50 (SK-MEL-5 melanoma) greater than 100 µM and a TGI (SK-MEL-5 melanoma) greater than 100 µM. It also gave a GI50 (HOP-62 NSCLC) greater than 100 µM, a TGI (HOP-62 NSCLC) greater than 100 µM and a GI50 (HCT-116 colon) greater than 100 µM. It also gave a TGI (HCT-116 colon) greater than 100 µM, a GI50 (HS 578T breast) greater than 100 µM and a TGI (HS 578T breast) greater than 100 µM. For the same molecule, the GI50 (ACHN renal) was greater than 100 µM, the TGI (ACHN renal) was greater than 100 µM and the GI50 (A498 renal) was greater than 100 µM. For the same molecule, the TGI (A498 renal) was greater than 100 µM, the GI50 (LOX IMVI melanoma) was greater than 100 µM and the TGI (LOX IMVI melanoma) was greater than 100 µM. It also gave a GI50 (SF-295 CNS) greater than 100 µM, a TGI (SF-295 CNS) greater than 100 µM and a GI50 (EKVX NSCLC) greater than 100 µM. For the same molecule, the TGI (EKVX NSCLC) was greater than 100 µM, the GI50 (SNB-75 CNS) was greater than 100 µM and the TGI (SNB-75 CNS) was greater than 100 µM. The GI50 (RPMI-8226 leukemia) was greater than 100 µM, the TGI (RPMI-8226 leukemia) was greater than 100 µM and the GI50 (OVCAR-8 ovarian) was greater than 100 µM. For the same molecule, the TGI (OVCAR-8 ovarian) was greater than 100 µM, the GI50 (RXF 393 renal) was greater than 100 µM and the TGI (RXF 393 renal) was greater than 100 µM. For the same molecule, the GI50 (786-0 renal) was greater than 100 µM, the TGI (786-0 renal) was greater than 100 µM and the GI50 (MCF7 breast) was greater than 100 µM. The TGI (MCF7 breast) was greater than 100 µM, the GI50 (T-47D breast) was greater than 100 µM and the TGI (T-47D breast) was greater than 100 µM. For the same molecule, the GI50 (KM12 colon) was greater than 100 µM, the TGI (KM12 colon) was greater than 100 µM and the GI50 (SNB-19 CNS) was greater than 100 µM. For the same molecule, the TGI (SNB-19 CNS) was greater than 100 µM, the GI50 (OVCAR-4 ovarian) was greater than 100 µM and the TGI (OVCAR-4 ovarian) was greater than 100 µM. The GI50 (HT29 colon) was greater than 100 µM, the TGI (HT29 colon) was greater than 100 µM and the GI50 (UACC-257 melanoma) was greater than 100 µM. It also gave a TGI (UACC-257 melanoma) greater than 100 µM, a GI50 (SK-OV-3 ovarian) greater than 100 µM and a TGI (SK-OV-3 ovarian) greater than 100 µM. It also gave a GI50 (NCI-H23 lung) greater than 100 µM, a TGI (NCI-H23 lung) greater than 100 µM and a GI50 (UACC-62 melanoma) greater than 100 µM. For the same molecule, the TGI (UACC-62 melanoma) was greater than 100 µM, the GI50 (SF-539 CNS) was greater than 100 µM and the TGI (SF-539 CNS) was greater than 100 µM. For the same molecule, the GI50 (HL-60(TB) leukemia) was greater than 100 µM, the TGI (HL-60(TB) leukemia) was greater than 100 µM and the GI50 (SN12C renal) was greater than 100 µM. The TGI (SN12C renal) was greater than 100 µM, the GI50 (COLO 205 colon) was greater than 100 µM and the TGI (COLO 205 colon) was greater than 100 µM. For the same molecule, the GI50 (SF-268 CNS) was greater than 100 µM, the TGI (SF-268 CNS) was greater than 100 µM and the GI50 (MDA-MB-435) was greater than 100 µM. It also gave a TGI (MDA-MB-435) greater than 100 µM, a GI50 (DU-145 prostate) greater than 100 µM and a TGI (DU-145 prostate) greater than 100 µM. For the same molecule, the GI50 (IGROV1 ovarian) was greater than 100 µM, the TGI (IGROV1 ovarian) was greater than 100 µM and the GI50 (CAKI-1 renal) was greater than 100 µM. The TGI (CAKI-1 renal) was greater than 100 µM, the GI50 (MOLT-4 leukemia) was greater than 100 µM and the TGI (MOLT-4 leukemia) was greater than 100 µM. The GI50 (NCI/ADR-RES ovarian) was greater than 100 µM, the TGI (NCI/ADR-RES ovarian) was greater than 100 µM and the GI50 (TK-10 renal) was greater than 100 µM. It also gave a TGI (TK-10 renal) greater than 100 µM, a GI50 (SK-MEL-2 melanoma) greater than 100 µM and a TGI (SK-MEL-2 melanoma) greater than 100 µM. For the same molecule, the GI50 (BT-549 breast) was greater than 100 µM, the TGI (BT-549 breast) was greater than 100 µM and the GI50 (PC-3 prostate) was greater than 100 µM. It also gave a TGI (PC-3 prostate) greater than 100 µM, a GI50 (A549 NSCLC) greater than 100 µM and a TGI (A549 NSCLC) greater than 100 µM. It also gave a GI50 (HCT-15 colon) greater than 100 µM, a TGI (HCT-15 colon) greater than 100 µM and a GI50 (NCI-H460 lung) greater than 100 µM. For the same molecule, the TGI (NCI-H460 lung) was greater than 100 µM, the GI50 (SW-620 colon) was greater than 100 µM and the TGI (SW-620 colon) was greater than 100 µM. It also gave a GI50 (HOP-92 NSCLC) greater than 100 µM, a TGI (HOP-92 NSCLC) greater than 100 µM and a GI50 (OVCAR-3 ovarian) greater than 100 µM. The TGI (OVCAR-3 ovarian) was greater than 100 µM, the GI50 (K-562 leukemia) was greater than 100 µM and the TGI (K-562 leukemia) was greater than 100 µM. It also gave a GI50 (CCRF-CEM leukemia) greater than 100 µM, a TGI (CCRF-CEM leukemia) greater than 100 µM and a GI50 (M14 melanoma) greater than 100 µM. The TGI (M14 melanoma) was greater than 100 µM, the GI50 (NCI-H226 lung) was greater than 100 µM and the TGI (NCI-H226 lung) was greater than 100 µM. For the same molecule, the GI50 (MDA-MB-231 breast) was greater than 100 µM, the TGI (MDA-MB-231 breast) was greater than 100 µM and the GI50 (SK-MEL-28 melanoma) was greater than 100 µM. The TGI (SK-MEL-28 melanoma) was greater than 100 µM.
